According to the NIST ThermoML archive (doi:10.1016/j.tca.2019.05.008):

Assays:
[1] = Fast Scanning Calorimeter Method
[2] = molar heat capacity at constant pressure; conditions: 101.33 kPa, Crystal, DSC

Cn1c(=O)c2[nH]cnc2n(C)c1=O [3,7-dihydro-1,3-dimethyl-1H-purine-2,6-dione]
[1], Crystal
Conditions | vapor or sublimation pressure [kPa]
441.6 K | 0.0028
447.2 K | 0.0033
449.1 K | 0.0047
451 K | 0.0061
457 K | 0.0072
459 K | 0.0108
460.4 K | 0.0109
466.7 K | 0.0133
468.9 K | 0.0192
469.8 K | 0.021
476.5 K | 0.0261
478.7 K | 0.0365
479.2 K | 0.0409
486.2 K | 0.0532
496 K | 0.1094
498 K | 0.1408
498.5 K | 0.1485
505.7 K | 0.1888
507.4 K | 0.2298
508.3 K | 0.2823
515.5 K | 0.3649
516.8 K | 0.3867
518.2 K | 0.4909
525.2 K | 0.563
526.2 K | 0.8232
528.1 K | 0.8994
535 K | 1.001
537.9 K | 1.619

[2]
Conditions | molar heat capacity at constant pressure [J/K/mol]
230 K | 159.6
240 K | 164.8
250 K | 170
260 K | 175.1
270 K | 180.2
280 K | 185.3
290 K | 190.3
300 K | 195.4
310 K | 200.4
320 K | 205.3
330 K | 210.3
340 K | 215.2
350 K | 220.1
360 K | 224.9
370 K | 229.7
380 K | 234.5
390 K | 239.3
400 K | 244
410 K | 248.7
420 K | 253.4

O=C1c2ccccc2C(=O)c2ccccc21 [9,10(9H,10H)-anthracenedione]
[1], Crystal
Conditions | vapor or sublimation pressure [kPa]
422.8 K | 0.0135
427.7 K | 0.0152
429.2 K | 0.0165
432.2 K | 0.0209
437.4 K | 0.0345
439.1 K | 0.0354
441.6 K | 0.0381
447.2 K | 0.0511
448.9 K | 0.0693
451 K | 0.0839
457 K | 0.1042
458.8 K | 0.148
460.4 K | 0.1696
466.7 K | 0.1977
468.7 K | 0.2749
469.8 K | 0.2497
476.5 K | 0.3235
478.5 K | 0.487

[2]
Conditions | molar heat capacity at constant pressure [J/K/mol]
230 K | 182.5
240 K | 188.9
250 K | 195.4
260 K | 201.9
270 K | 208.3
280 K | 214.8
290 K | 221.3
300 K | 227.8
310 K | 234.3
320 K | 240.8
330 K | 247.3
340 K | 253.8
350 K | 260.4
360 K | 266.9
370 K | 273.5
380 K | 280
390 K | 286.6
400 K | 293.2
410 K | 299.8
420 K | 306.4

Cn1c(=O)c2c(ncn2C)n(C)c1=O [caffeine]
[1], Crystal 1
Conditions | vapor or sublimation pressure [kPa]
394.7 K | 0.0031
398.4 K | 0.0035
399.8 K | 0.0039
404.1 K | 0.0067
408.2 K | 0.0092
409.7 K | 0.0099
413.5 K | 0.0116
417.9 K | 0.0158
419.5 K | 0.019
422.8 K | 0.023
427.7 K | 0.0336
429.4 K | 0.0376
432.2 K | 0.0467
437.4 K | 0.0651
439.3 K | 0.0736
441.6 K | 0.0874
447.2 K | 0.1252
449.1 K | 0.1611
451 K | 0.1622
457 K | 0.2346
459 K | 0.2609
460.4 K | 0.2914
466.7 K | 0.4121
468.9 K | 0.4821
469.8 K | 0.4864
476.5 K | 0.7169
478.7 K | 0.8343
479.2 K | 0.9112
486.2 K | 1.078
488.6 K | 1.415
